From PubChem BioAssay AID1919003 (Molecular Pharmacology Branch, DTP, NCI, 2023)
“And” between values parts separate entries of the source, which are not always exact repeats. Identical values can stand only once.

Tested on: 786-0 complex spheroids with HUVEC/MSC, growth % test/control
Test: Anticancer human tumor 786-0 cell line growth inhibition [AhR];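 note: compound exposure lasted seven days before the read-out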
Details: for viability, T/C: stronger effect = lower value
Outline: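 Agents were dosed in half-log steps down from roughly clinical Cmax, or from 10 microM where Cmax was unknown, alone and with AhR antagonists. Read-out: percent test/control growth of tumor spheroids containing HUVEC and MSC stromal cells.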

Q: How did the viability, T/C (compound 0.0316 µM) turn out when CC1(C)CCC(CN2CCN(c3ccc(C(=O)NS(=O)(=O)c4ccc(NCC5CCOCC5)c([N+](=O)[O-])c4)c(Oc4cnc5[nH]ccc5c4)c3)CC2)=C(c2ccc(Cl)cc2)C1 was run?
A: The viability, T/C was 99.3% and 109% and 105%.

Q: What about the viability, T/C (compound 0.1 µM) of the same compound?
A: Its viability, T/C is 97.5% and 98.3% and 98%.

Q: What about the viability, T/C (compound 0.316 µM) of the same compound?
A: The viability, T/C was 102% and 108% and 99.2%.

Q: What about the viability, T/C (compound 1 µM) of the same compound?
A: Its viability, T/C is 107% and 108% and 102%.

Q: What about the viability, T/C (compound 3.16 µM) of the same compound?
A: The viability, T/C was 101% and 97.3% and 81.5%.

Q: And the viability, T/C (compound 10 µM)?
A: The viability, T/C was 61.2% and 77.3% and 77.1%.

Q: What about the IC50 (curve of compound) of the same compound?
A: Its IC50 is over 10000 nM.

Q: COc1cccc2c1C(=O)c1c(O)c3c(c(O)c1C2=O)CC(O)(C(=O)CO)CC3OC1CC(N)C(O)C(C)O1 (centres undefined) was tested. Which viability, T/C (compound 0.0316 µM) did it give?
A: Its viability, T/C is 58.8% and 70% and 62%.

Q: What about the viability, T/C (compound 0.1 µM) of the same compound?
A: Its viability, T/C is 51.9% and 65.6% and 44.9%.

Q: And the viability, T/C (compound 0.316 µM)?
A: Its viability, T/C is 23.9% and 30.9% and 18.1%.

Q: What about the viability, T/C (compound 1 µM) of the same compound?
A: Its viability, T/C is 7% and 10.7% and 3.15%.

Q: And the viability, T/C (compound 3.16 µM)?
A: Its viability, T/C is 0.81% and 3.57% and 0.53%.

Q: And the viability, T/C (compound 10 µM)?
A: Its viability, T/C is 0.36% and 3.07% and 0.69%.

Q: What about the IC50 (curve of compound) of the same compound?
A: The IC50 was 104 nM and 166 nM and 71.8 nM.

Q: Which IC50 (curve of first compound, second compound 0.1 µM) does the source give for COc1cc(C2c3cc4c(cc3C(OC3OC5COC(C)OC5C(O)C3O)C3COC(=O)C23)OCO4)cc(OC)c1O (centres undefined) + Cc1ccccc1N=Nc1ccc(NC(=O)c2ccnn2C)c(C)c1 here?
A: The IC50 was 937 nM.

Q: What about the IC50 (curve of first compound, second compound 0.316 µM) of the same compound?
A: The IC50 was 873 nM.

Q: What about the IC50 (curve of first compound, second compound 1 µM) of the same compound?
A: The IC50 was 1060 nM.

Q: What about the IC50 (curve of first compound, second compound 3.16 µM) of the same compound?
A: The IC50 was 885 nM.

Q: What about the IC50 (curve of first compound, second compound 10 µM) of the same compound?
A: The IC50 was 723 nM.

Q: What about the viability, T/C (second compound 0.1 µM, first compound 0.0316 µM) of the same compound?
A: The viability, T/C was 110%.

Q: What about the viability, T/C (second compound 0.1 µM, first compound 0.1 µM) of the same compound?
A: The viability, T/C was 110%.

Q: What about the viability, T/C (second compound 0.1 µM, first compound 0.316 µM) of the same compound?
A: The viability, T/C was 85.2%.

Q: And the viability, T/C (second compound 0.1 µM, first compound 1 µM)?
A: Its viability, T/C is 46.2%.

Q: And the viability, T/C (second compound 0.1 µM, first compound 3.16 µM)?
A: Its viability, T/C is 24.2%.

Q: What about the viability, T/C (second compound 0.1 µM, first compound 10 µM) of the same compound?
A: Its viability, T/C is 9.45%.

Q: What about the viability, T/C (second compound 0.316 µM, first compound 0.0316 µM) of the same compound?
A: The viability, T/C was 110%.

Q: What about the viability, T/C (second compound 0.316 µM, first compound 0.1 µM) of the same compound?
A: Its viability, T/C is 105%.

Q: And the viability, T/C (second compound 0.316 µM, first compound 0.316 µM)?
A: Its viability, T/C is 86.2%.

Q: What about the viability, T/C (second compound 0.316 µM, first compound 1 µM) of the same compound?
A: Its viability, T/C is 41.6%.

Q: And the viability, T/C (second compound 0.316 µM, first compound 3.16 µM)?
A: The viability, T/C was 27.5%.

Q: What about the viability, T/C (second compound 0.316 µM, first compound 10 µM) of the same compound?
A: Its viability, T/C is 10.3%.

Q: And the viability, T/C (second compound 1 µM, first compound 0.0316 µM)?
A: Its viability, T/C is 107%.

Q: What about the viability, T/C (second compound 1 µM, first compound 0.1 µM) of the same compound?
A: The viability, T/C was 107%.

Q: What about the viability, T/C (second compound 1 µM, first compound 0.316 µM) of the same compound?
A: The viability, T/C was 81.4%.

Q: What about the viability, T/C (second compound 1 µM, first compound 1 µM) of the same compound?
A: The viability, T/C was 50.4%.

Q: And the viability, T/C (second compound 1 µM, first compound 3.16 µM)?
A: Its viability, T/C is 26.8%.

Q: What about the viability, T/C (second compound 1 µM, first compound 10 µM) of the same compound?
A: Its viability, T/C is 10.3%.

Q: What about the viability, T/C (second compound 3.16 µM, first compound 0.0316 µM) of the same compound?
A: Its viability, T/C is 103%.

Q: What about the viability, T/C (second compound 3.16 µM, first compound 0.1 µM) of the same compound?
A: The viability, T/C was 82.9%.

Q: And the viability, T/C (second compound 3.16 µM, first compound 0.316 µM)?
A: The viability, T/C was 78%.

Q: And the viability, T/C (second compound 3.16 µM, first compound 1 µM)?
A: Its viability, T/C is 46.4%.

Q: And the viability, T/C (second compound 3.16 µM, first compound 3.16 µM)?
A: The viability, T/C was 21.1%.

Q: And the viability, T/C (second compound 3.16 µM, first compound 10 µM)?
A: The viability, T/C was 7.16%.

Q: What about the viability, T/C (second compound 10 µM, first compound 0.0316 µM) of the same compound?
A: Its viability, T/C is 96.8%.

Q: What about the viability, T/C (second compound 10 µM, first compound 0.1 µM) of the same compound?
A: Its viability, T/C is 91.7%.

Q: What about the viability, T/C (second compound 10 µM, first compound 0.316 µM) of the same compound?
A: The viability, T/C was 68.4%.

Q: And the viability, T/C (second compound 10 µM, first compound 1 µM)?
A: The viability, T/C was 42.6%.

Q: What about the viability, T/C (second compound 10 µM, first compound 3.16 µM) of the same compound?
A: The viability, T/C was 19.4%.

Q: What about the viability, T/C (second compound 10 µM, first compound 10 µM) of the same compound?
A: Its viability, T/C is 7%.
